Source: paper PMC12045974, “T cell toxicity induced by tigecycline binding to the mitochondrial ribosome” (Nature Communications, 2025)
Several values for one entry are separate records, joined by “and”; a condition that tells them apart may be missing. Equal values may be shown once. Read-outs that look alike come from different tables or passages of the source.

What was measured:
Jurkat T cells = test: Cell viability assay (CCK-8), Jurkat T cells; assay type: cell-based, human; details: for cell vialibity normalized to Vehicle (DMSO): in % (unit assumed)
Method in brief: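 This CCK-8 viability assay used Jurkat T cells seeded at 6000 per well and grown in supplemented RPMI-1640, 100 μl per well. Antibiotic stocks in DMSO were diluted in medium to give 9 concentrations, and untreated wells received matching DMSO. After treatment, cells were incubated with 10% CCK-8 for 3 h. Results were normalized to vehicle, technical repeats were plotted as mean ± SEM, and IC50 values were derived.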

PBMCs = test: Cell viability assay (CCK-8), PBMCs; assay type: cell-based, human; details: Homo sapiens, PBMC, 72 h, PBMCs, read-out: cell vialibity normalized to Vehicle (DMSO)
Procedure: Buffy coats were ordered from anonymous blood donors at […]. […] Cells were seeded in 96-well plates ranging from 2000 to 15,000 cells per well depending on different cell lines and treated with antibiotics in serial dilutions for 72 h (120 h for the preliminary assays) in a humidified incubator (37 °C, 5% CO2) in 100 μl medium (DMEM with 10% FBS, 2.05 mM L-glutamine (Sigma) for Hek293 and Hela; RPMI-1640 with 10% FBS, 2.05 mM L-glutamine (Sigma), and 55 μM 2-ME (Gibco) for Jurkat T cells and PBMCs). Based on preliminary tests, the number of cells per well was optimized to 2000 for Hela and Hek293, 6000 for Jurkat T cells, and 15,000 for PBMCs. The stocks of antibiotics were prepared by dissolving in DMSO. As control, the same amount of DMSO was added to the non-treated groups. Serial drug dilutions were prepared in the corresponding medium to provide a total of 9 concentrations up to 300 μM for tetracyclines and up to 900 μM for additional bacterial protein synthesis inhibitors. After drug treatment, 10% CCK-8 (Cell Counting Kit-8, Sigma Aldrich) (10 μl per well) of the total volume was added to the cells and incubated for 1-4 h depending on cell lines (1 h for Hela and Hek293; 3 h for Jurkat T cells; 4 h for PBMCs) before the evaluation of the effect of antibiotics on cell viability. […] Results were visually confirmed under the light microscope. Each treatment was performed in technical repeats. Dose-response curves were plotted, mean ± SEM was shown, and half maximal inhibitory concentration (IC50) values were calculated in GraphPad Prism.

[1] = tested on: mitochondrial translation; test: 35S metabolic labeling, de novo mitochondrial translation assay in Jurkat T cells; assay type: cell-based, human; details: 5 μM, 18 h of treatment
Procedure: Jurkat T cells were seeded in 6-well plates at a density of 1 million cells/ml and cultured with different concentrations of antibiotics for 18 h in RPMI-1640 medium (with 10% FBS, 2.05 mM L-glutamine (Sigma), and 55 μM 2-ME (Gibco)). After centrifugation, cells were incubated twice for 5 min at 37 °C in Cys-/Met-free medium (DMEM, high glucose, no glutamine, no methionine, no cysteine, supplemented with 10% dialyzed fetal bovine serum, 1× GlutaMax, and sodium pyruvate), followed by 20 min incubation at 37 °C in Cys-/Met-free medium supplemented with 100 µg/ml emetine to inhibit cytosolic translation (only for mitochondrial translation groups). Subsequently, 1 ml Cys-/Met-free medium supplemented with 200 (for cytosolic translation) or 400 µCi (for mitochondrial translation) of EasyTag EXPRESS [^35S] protein labeling mix (methionine and cysteine) (Perkin Elmer) were added to each sample and incubated for 20 min at 37 °C, 5% CO2. Following labeling, cells were washed three times with 1 ml PBS, harvested by centrifugation (400 × g, 10 min, 4 °C), and stored at −20 °C. Cells were lysed by resuspension in 30 µl PBS supplemented with a Complete EDTA-free protease inhibitor cocktail and 50 U Benzonase nuclease (Sigma) and by application of one freeze-thaw cycle. Protein contents were determined by Pierce BCA assay (Thermo Fisher). […]

HeLa cells = test: Cell viability assay (CCK-8), HeLa cells; assay type: cell-based; details: in % (unit assumed)
Procedure: Cells were seeded in 96-well plates ranging from 2000 to 15,000 cells per well depending on different cell lines and treated with antibiotics in serial dilutions for 72 h (120 h for the preliminary assays) in a humidified incubator (37 °C, 5% CO2) in 100 μl medium (DMEM with 10% FBS, 2.05 mM L-glutamine (Sigma) for Hek293 and Hela; RPMI-1640 with 10% FBS, 2.05 mM L-glutamine (Sigma), and 55 μM 2-ME (Gibco) for Jurkat T cells and PBMCs). Based on preliminary tests, the number of cells per well was optimized to 2000 for Hela and Hek293, 6000 for Jurkat T cells, and 15,000 for PBMCs. The stocks of antibiotics were prepared by dissolving in DMSO. As control, the same amount of DMSO was added to the non-treated groups. Serial drug dilutions were prepared in the corresponding medium to provide a total of 9 concentrations up to 300 μM for tetracyclines and up to 900 μM for additional bacterial protein synthesis inhibitors. After drug treatment, 10% CCK-8 (Cell Counting Kit-8, Sigma Aldrich) (10 μl per well) of the total volume was added to the cells and incubated for 1–4 h depending on cell lines (1 h for Hela and Hek293; 3 h for Jurkat T cells; 4 h for PBMCs) before the evaluation of the effect of antibiotics on cell viability. […] Results were visually confirmed under the light microscope. Each treatment was performed in technical repeats. Dose-response curves were plotted, mean ± SEM was shown, and half maximal inhibitory concentration (IC50) values were calculated in GraphPad Prism.

Compound: C[C@H]1c2cccc(O)c2C(=O)C2=C(O)[C@]3(O)C(=O)C(C(N)=O)=C(O)[C@@H](N(C)C)[C@@H]3[C@@H](O)[C@@H]21 [Doxycycline, doxycycline]
- IC50 (Jurkat T cells; Homo sapiens, 120 h, Jurkat T cells, after 5 days, read-out: IC50 (cell survival)): 6.93 µM
- cell vialibity normalized to Vehicle (DMSO) (Jurkat T cells; Jurkat 3d, dose 1 μM): 102.781 and 111.139 and 99.3878 and 96.4732 and 90.2582
- cell vialibity normalized to Vehicle (DMSO) (Jurkat T cells; Jurkat 3d, dose 5 μM): 115.784 and 120.149 and 111.073 and 98.3364 and 101.664
- cell vialibity normalized to Vehicle (DMSO) (Jurkat T cells; Jurkat 3d, dose 10 μM): 38.4083 and 33.5773 and 30.3966 and 27.7083 and 36.9178
- cell vialibity normalized to Vehicle (DMSO) (Jurkat T cells; Jurkat 3d, dose 50 μM): 15.6109 and 16.1964 and 17.4075 and 16.8885 and 14.799
- cell vialibity normalized to Vehicle (DMSO) (Jurkat T cells; Jurkat 3d, dose 100 μM): 22.9705 and 21.6928 and 21.7195 and 21.0407 and 21.5331
- cell vialibity normalized to Vehicle (DMSO) (Jurkat T cells; Jurkat 5d, dose 1 μM): 114.324 and 76.849 and 78.0026 and 73.9947 and 75.2933
- cell vialibity normalized to Vehicle (DMSO) (Jurkat T cells; Jurkat 5d, dose 5 μM): 77.1127 and 72.762 and 88.7937 and 109.835 and 79.8088
- cell vialibity normalized to Vehicle (DMSO) (Jurkat T cells; Jurkat 5d, dose 10 μM): 12.7884 and 10.534 and 11.8194 and 11.8853 and 12.2149
- cell vialibity normalized to Vehicle (DMSO) (Jurkat T cells; Jurkat 5d, dose 50 μM): 9.394 and 7.97 and 7.877 and 8.029 and 7.9499
- cell vialibity normalized to Vehicle (DMSO) (Jurkat T cells; Jurkat 5d, dose 100 μM): 12.3797 and 14.0541 and 16.7699 and 13.5333 and 13.3553
- cell vialibity normalized to Vehicle (DMSO) (Jurkat T cells; Jurkat, 72 h, dose 0.0457247 μM, Fig. 1A): 104.061 and 104.425 and 103.549
- cell vialibity normalized to Vehicle (DMSO) (Jurkat T cells; Jurkat, 72 h, dose 0.137174 μM, Fig. 1A): 102.734 and 100.282 and 102.099
- cell vialibity normalized to Vehicle (DMSO) (Jurkat T cells; Jurkat, 72 h, dose 0.411523 μM, Fig. 1A): 102.372 and 108.487 and 106.988
- cell vialibity normalized to Vehicle (DMSO) (Jurkat T cells; Jurkat, 72 h, dose 1.23457 μM, Fig. 1A): 101.608 and 103.54 and 101.759
- cell vialibity normalized to Vehicle (DMSO) (Jurkat T cells; Jurkat, 72 h, dose 3.7037 μM, Fig. 1A): 101.93 and 103.62 and 98.3642
- cell vialibity normalized to Vehicle (DMSO) (Jurkat T cells; Jurkat, 72 h, dose 11.1111 μM, Fig. 1A): 87.2939 and 95.2132 and 89.0432
- cell vialibity normalized to Vehicle (DMSO) (Jurkat T cells; Jurkat, 72 h, dose 33.3333 μM, Fig. 1A): 14.5557 and 15.5672 and 13.1235
- cell vialibity normalized to Vehicle (DMSO) (Jurkat T cells; Jurkat, 72 h, dose 100 μM, Fig. 1A): 5.107 and 4.7868 and 3.556
- viability at 0.0457247 µM (PBMCs; dose 0.0457247 μM, Fig. 1A): 105%
- viability at 0.137174 µM (PBMCs; dose 0.137174 μM, Fig. 1A): 100%
- viability at 0.411523 µM (PBMCs; Fig. 1A): 101%
- viability at 0.411523 µM (PBMCs; Fig. 1B): 103%
- viability at 3.7037 µM (PBMCs; Fig. 1A): 103%
- viability at 3.7037 µM (PBMCs; Fig. 1B): 135%
- viability at 33.3333 µM (PBMCs; Fig. 1A): 89.9%
- viability at 33.3333 µM (PBMCs; Fig. 1B): 19.7%
- viability at 100 µM (PBMCs; dose 100 μM, Fig. 1A): 34.7%
- inhibition of mitochondrial translation [1]: weaker inhibition
- cell vialibity normalized to Vehicle (DMSO) (HeLa cells; Hela 3d, dose 1 μM): 90.6648 and 96.338 and 89.6672 and 89.6605 and 88.6496
- cell vialibity normalized to Vehicle (DMSO) (HeLa cells; Hela 3d, dose 5 μM): 84.5992 and 86.2752 and 82.4709 and 76.6381 and 79.4714
- cell vialibity normalized to Vehicle (DMSO) (HeLa cells; Hela 3d, dose 10 μM): 79.4248 and 81.7526 and 84.3598 and 79.9369 and 77.0704
- cell vialibity normalized to Vehicle (DMSO) (HeLa cells; Hela 3d, dose 50 μM): 73.5987 and 75.9863 and 80.8614 and 86.3816 and 72.8139
- cell vialibity normalized to Vehicle (DMSO) (HeLa cells; Hela 3d, dose 100 μM): 66.9345 and 67.3003 and 64.2675 and 62.1126 and 67.4466
- cell vialibity normalized to Vehicle (DMSO) (HeLa cells; Hela 5d, dose 1 μM): 99.6093 and 93.5325 and 94.7977 and 102.368 and 101.019
- cell vialibity normalized to Vehicle (DMSO) (HeLa cells; Hela 5d, dose 5 μM): 109.557 and 87.6871 and 94.9961 and 97.211 and 96.619
- cell vialibity normalized to Vehicle (DMSO) (HeLa cells; Hela 5d, dose 10 μM): 94.5723 and 89.5534 and 92.3875 and 106.137 and 99.0323
- cell vialibity normalized to Vehicle (DMSO) (HeLa cells; Hela 5d, dose 50 μM): 75.251 and 76.5432 and 75.1938 and 78.2863 and 73.7483
- cell vialibity normalized to Vehicle (DMSO) (HeLa cells; Hela 5d, dose 100 μM): 73.589 and 66.6556 and 71.8609 and 76.0624 and 69.5949
